In ChEMBL document CHEMBL1127155, “Synthesis and antiviral activity of 9-(phosphonoalkylnyloxy)purines: Novel acyclonucleotides” (Bioorg Med Chem Lett, 1993):
Converted amounts (≈) assume the structure as drawn.

Key:
MRC5 = assay: Tested for inhibition of DNA synthesis in MRC-5 cells; assay type: functional, cell-based; details: Homo sapiens
Human alphaherpesvirus 1 [1] = assay: Tested for its effect on replication of herpes simplex type-1 (HSV-1) at the dose up to 100 ug/mL; NE: No effect on replication; assay type: functional, organism-based
Cytomegalovirus [2] = assay: Tested for its effect on replication of cytomegalovirus (CMV) at the dose up to 100 ug/mL; NE: No effect on replication.; assay type: functional, organism-based
Human alphaherpesvirus 2 [3] = assay: Tested for the concentration at which compound showed activity against replication of herpes simplex type-2 (HSV-2); assay type: functional, organism-based
Cytomegalovirus [4] = assay: Tested for its effect on replication of cytomegalovirus (CMV) at the dose up to 100 ug/mL; NE: No effect on replication; assay type: functional, organism-based
Human alphaherpesvirus 1 [5] = assay: Tested for concentration at which cytotoxicity was observed in herpes simplex type-1 (HSV-1); assay type: functional
Human alphaherpesvirus 3 = assay: Tested for the concentration at which compound showed activity against its effect on replication of varicella zoster virus; assay type: functional, organism-based
Cytomegalovirus [6] = assay: Tested for the concentration at which compound showed activity against its effect on replication of Cytomegalovirus; assay type: functional, organism-based; details: Human betaherpesvirus 5
Human alphaherpesvirus 2 [7] = assay: Tested for the concentration at which compound showed activity against its effect on replication of herpes simplex type-2 (HSV-2); assay type: functional, organism-based
Human alphaherpesvirus 1 [8] = assay: Tested for the concentration at which compound showed activity against its effect on replication of herpes simplex type-1 (HSV-1); assay type: functional, organism-based

SMILES | IC50 (MRC5) [µg/mL] | Activity (Human alphaherpesvirus 1 [1]) | Activity (Cytomegalovirus [2]) | IC50 (Human alphaherpesvirus 2 [3]) [µg/mL] | Activity (Cytomegalovirus [4]) | Dose (Human alphaherpesvirus 1 [5]) [µg/mL] | IC50 (Human alphaherpesvirus 3) [µg/mL] | IC50 (Cytomegalovirus [6]) [µg/mL] | IC50 (Human alphaherpesvirus 2 [7]) [µg/mL] | IC50 (Human alphaherpesvirus 1 [8]) [µg/mL]
Nc1ncnc2c1ncn2OCC#CP(=O)(O)O | 98 (≈ 364 µM) | No effect | No effect | 14 (≈ 52 µM) | – | – | – | – | – | –
Nc1nc(O)c2ncn(OCC/C(=C/Cl)P(=O)(O)O)c2n1 | 17 (≈ 50.6 µM) | No effect | – | 25 (≈ 74.5 µM) | No effect | – | – | – | – | –
Nc1nc(O)c2ncn(OCC#CP(=O)(O)O)c2n1 | 4.2 (≈ 14.7 µM) | – | – | – | – | 30 | 3.2 (≈ 11.2 µM) | 3.8 (≈ 13.3 µM) | 3.9 (≈ 13.7 µM) | 6.5 (≈ 22.8 µM)
